Source: patent US20210300940A1 (Merck Patent GmbH, priority 2018, published 2021)

Experiments:
[1] = target: T1, TLR8 (Homo sapiens, UniProt Q9NR97); test: HEK/293 TLR8 Cell Assay; assay type: cell-based; details: HEK cells, R848 agonist 30 uM final concentration, Steady-Glo readout; read-out: TLR8 potency
T1 construct: expressed in transfected cells; host or cells: HEK/293 reporter cells (NF-kB luciferase)
T1 sequence (Q9NR97 27-1041): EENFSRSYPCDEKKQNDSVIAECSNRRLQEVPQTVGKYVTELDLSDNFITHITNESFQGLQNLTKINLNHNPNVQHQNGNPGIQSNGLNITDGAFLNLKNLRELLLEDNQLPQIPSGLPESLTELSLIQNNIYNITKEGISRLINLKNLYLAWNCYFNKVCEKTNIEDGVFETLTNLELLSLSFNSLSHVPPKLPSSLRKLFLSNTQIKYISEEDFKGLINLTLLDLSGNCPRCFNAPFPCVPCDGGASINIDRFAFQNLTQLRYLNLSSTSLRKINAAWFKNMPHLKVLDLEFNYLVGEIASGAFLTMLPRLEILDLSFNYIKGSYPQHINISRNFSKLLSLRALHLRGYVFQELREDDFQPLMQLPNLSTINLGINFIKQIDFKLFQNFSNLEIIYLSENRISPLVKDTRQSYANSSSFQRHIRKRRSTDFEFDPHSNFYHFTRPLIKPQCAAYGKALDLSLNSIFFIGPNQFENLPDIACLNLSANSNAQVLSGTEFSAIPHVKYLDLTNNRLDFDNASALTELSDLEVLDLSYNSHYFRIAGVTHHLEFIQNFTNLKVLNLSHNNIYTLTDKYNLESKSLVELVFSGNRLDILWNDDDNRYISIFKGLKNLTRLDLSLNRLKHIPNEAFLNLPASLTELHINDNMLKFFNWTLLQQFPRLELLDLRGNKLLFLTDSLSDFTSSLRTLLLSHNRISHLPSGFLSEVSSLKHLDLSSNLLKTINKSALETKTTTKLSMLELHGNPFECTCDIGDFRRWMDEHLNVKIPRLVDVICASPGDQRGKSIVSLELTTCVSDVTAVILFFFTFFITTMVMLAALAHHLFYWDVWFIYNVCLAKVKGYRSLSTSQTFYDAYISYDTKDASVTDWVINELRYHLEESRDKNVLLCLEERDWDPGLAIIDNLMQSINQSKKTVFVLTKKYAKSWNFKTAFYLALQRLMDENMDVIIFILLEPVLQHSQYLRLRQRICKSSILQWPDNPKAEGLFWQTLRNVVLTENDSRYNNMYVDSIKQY

[2] = target: T2, TLR7 (Homo sapiens, UniProt Q9NYK1); test: HEK/293 TLR7 Cell Assay; assay type: cell-based; details: TLR7/NFKb HEK cells, R848 agonist 10 uM final concentration, Steady-Glo readout; read-out: TLR7 potency
T2 construct: expressed in transfected cells; host or cells: HEK/293 cells carrying TLR7 and an NF-kB luciferase reporter
T2 sequence (Q9NYK1 27-1049): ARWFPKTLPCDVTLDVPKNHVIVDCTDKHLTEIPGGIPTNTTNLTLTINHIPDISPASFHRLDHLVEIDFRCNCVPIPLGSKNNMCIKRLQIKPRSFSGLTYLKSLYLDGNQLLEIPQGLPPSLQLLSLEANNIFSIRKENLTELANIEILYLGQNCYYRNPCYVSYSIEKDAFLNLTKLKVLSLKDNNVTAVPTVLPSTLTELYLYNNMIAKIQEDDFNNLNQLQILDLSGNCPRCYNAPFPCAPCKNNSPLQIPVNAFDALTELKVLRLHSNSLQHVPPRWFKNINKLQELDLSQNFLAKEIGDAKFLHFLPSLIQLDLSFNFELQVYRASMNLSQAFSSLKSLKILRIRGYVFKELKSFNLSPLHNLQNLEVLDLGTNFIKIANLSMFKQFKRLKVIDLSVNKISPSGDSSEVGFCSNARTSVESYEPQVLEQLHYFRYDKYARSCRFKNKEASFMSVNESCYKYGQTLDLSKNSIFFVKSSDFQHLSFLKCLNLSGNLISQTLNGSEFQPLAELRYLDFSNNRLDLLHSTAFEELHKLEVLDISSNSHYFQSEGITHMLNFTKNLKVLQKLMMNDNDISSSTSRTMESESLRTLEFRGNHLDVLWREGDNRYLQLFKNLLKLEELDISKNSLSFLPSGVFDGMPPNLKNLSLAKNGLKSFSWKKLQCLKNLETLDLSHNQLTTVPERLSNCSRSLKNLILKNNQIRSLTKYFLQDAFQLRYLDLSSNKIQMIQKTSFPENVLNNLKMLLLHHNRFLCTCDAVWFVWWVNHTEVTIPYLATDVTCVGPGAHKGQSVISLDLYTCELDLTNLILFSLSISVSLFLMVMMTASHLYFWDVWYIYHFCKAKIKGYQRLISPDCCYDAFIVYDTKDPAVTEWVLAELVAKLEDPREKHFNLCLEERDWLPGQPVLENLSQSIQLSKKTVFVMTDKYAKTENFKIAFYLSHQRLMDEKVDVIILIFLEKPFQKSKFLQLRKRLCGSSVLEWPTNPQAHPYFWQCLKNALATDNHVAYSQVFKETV
Outline: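 TLR7/NF-κB reporter HEK293 cells, 5000/well, cultured 24 h, then preincubated 30 min with compound before R848 agonist (10 uM final). After 5 h stimulation, Steady-Glo luciferase luminescence read.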

Structure (SMILES) | IC50 [1] [nM] | IC50 [2] [nM]
C[C@@H](C(=O)N[C@@H]1C[C@H](C(F)(F)F)CN(c2ccc(C#N)c3nccnc23)C1)N1CCN(C)CC1 (single isomer, unassigned) [Example 99] | < 75 | 75 to 150
CN1CCC(F)(CNC(=O)[C@H]2CN(c3ccc(C#N)c4ncccc34)C[C@@H](C(F)(F)F)O2)CC1 (single isomer, unassigned) [Example 353] | < 75 | < 75
C[C@H]1C[C@@H](NC2CS(=O)(=O)C2)CN(c2ccc(C#N)c3nccnc23)C1 [Example 12, 8-[(3R,5S)-3-(1,1-Dioxo-1lambda6-thietan-3-ylamino)-5-methyl-piperidin-1-yl]-quinoxaline-5-carbonitrile] | 75 to 150 | > 150
C[C@@H]1CN(c2cnc(C#N)c3ncccc23)C[C@H](C(=O)NC[C@H]2CCCN2C)O1 [Example 276, (2R,6R)-4-(8-Cyano-[1,7]naphthyridin-5-yl)-6-methyl-morpholine-2-carboxylic acid ((R)-1-methyl-pyrrolidin-2-ylmethyl)-amide] | 75 to 150 | < 75
CN1CCC(O)(CC(=O)N[C@@H]2C[C@H](C(F)(F)F)CN(c3ccc(C#N)c4ncccc34)C2)CC1 [Example 73, N-[(3R,5S)-1-(8-cyanoquinolin-5-yl)-5-(trifluoromethyl)piperidin-3-yl]-2-(4-hydroxy-1-methylpiperidin-4-yl)acetamide] | > 150 | 75 to 150
N#Cc1ccc(N2C[C@@H](C(=O)N3C[C@@H](N)C4(CC4)C3)O[C@@H](C(F)(F)F)C2)c2nccnc12 (single isomer, unassigned) [Example 312] | > 150 | < 75
N#Cc1ccc(N2C[C@@H](C(F)(F)F)O[C@@H](C(=O)N3C[C@@H](N)C4(CC4)C3)C2)c2nccnc12 (single isomer, unassigned) [Example 311] | < 75 | < 75
C[C@H]1C[C@@H](NC(=O)C2CCCCN2)CN(c2ccc(C(F)(F)F)c3ncccc23)C1 (stereo partly drawn) [Example 181, Piperidine-2-carboxylic acid [(3R,5S)-5-methyl-1-(8-trifluoromethyl-quinolin-5-yl)-piperidin-3-yl]-amide] | < 75 | < 75
Cc1c(F)cc(N2C[C@@H](C)C[C@@H](NC(=O)[C@@H](N)[C@@H](C)O)C2)c2cccnc12 [Example 134, (2S,3R)-2-Amino-N-[(3R,5S)-1-(7-fluoro-8-methyl-quinolin-5-yl)-5-methyl-piperidin-3-yl]-3-hydroxy-butyramide] | 75 to 150 | 75 to 150
CC(C)[C@H](O)C(=O)N[C@@H]1C[C@H](C)CN(c2cnc(C#N)c3nccnc23)C1 [Example 196, (S)—N-[(3R,5S)-1-(5-Cyano-pyrido[3,4-b]pyrazin-8-yl)-5-methyl-piperidin-3-yl]-2-hydroxy-3-methyl-butyramide] | < 75 | > 150
CN1CC[C@@](F)(CNC(=O)[C@@H]2CN(c3cnc(C#N)c4ncccc34)C[C@H](C(F)(F)F)O2)C1 (single isomer, unassigned) [Example 349] | 75 to 150 | 75 to 150
C[C@@H]1CN(c2ccc(C#N)c3nccnc23)C[C@H](CNC(=O)[C@H](C)O)O1 (single isomer, unassigned) [Example 341] | < 75 | > 150
CNS(=O)(=O)CCCN[C@@H]1C[C@H](C)CN(c2ccc(C(F)(F)F)c3ncccc23)C1 [Example 32, 3-[(3R,5S)-5-Methyl-1-(8-trifluoromethyl-quinolin-5-yl)-piperidin-3-ylamino]-propane-1-sulfonic acid methylamide] | < 75 | < 75
C[C@H]1C[C@@H](NCC2(O)CCOCC2)CN(c2ccc(C(F)(F)F)c3ncccc23)C1 [Example 50, 4-{[(3R,5S)-5-Methyl-1-(8-trifluoromethyl-quinolin-5-yl)-piperidin-3-ylamino]-methyl}-tetrahydro-pyran-4-ol] | < 75 | < 75
C[C@H]1C[C@@H](NCC2CCS(=O)(=O)C2)CN(c2ccc(C#N)c3nccnc23)C1 (stereo partly drawn) [Example 42, 8-{(3R,5S)-3-[(1,1-Dioxo-tetrahydro-1lambda6-thiophen-3-ylmethyl)-amino]-5-methyl-piperidin-1-yl}-quinoxaline-5-carbonitrile] | 75 to 150 | 75 to 150
CN1CCC(F)(CC(=O)N[C@@H]2C[C@H](C(F)(F)F)CN(c3ccc(C#N)c4ncncc34)C2)CC1 [Example 71, N-[(3R,5S)-1-(8-cyanoquinazolin-5-yl)-5-(trifluoromethyl)piperidin-3-yl]-2-(4-fluoro-1-methylpiperidin-4-yl)acetamide] | 75 to 150 | < 75
N#Cc1ccc(N2C[C@H](NC(=O)[C@@H]3CCCN3)C[C@H](C(F)(F)F)C2)c2cccnc12 [Example 125, (2S)—N-[(3R,5S)-1-(8-cyanoquinolin-5-yl)-5-(trifluoromethyl)piperidin-3-yl]pyrrolidine-2-carboxamide] | < 75 | < 75
C[C@H]1C[C@@H](n2ccnc2)CN(c2ccc(C(F)(F)F)c3nccnc23)C1 [Example 157, 5-[(3R,5S)-3-(1H-imidazol-1-yl)-5-methylpiperidin-1-yl]-8-(trifluoromethyl)quinoxaline] | < 75 | > 150
CC[C@@H](NC(=O)[C@H]1CN(c2ccc(C#N)c3nccnc23)C[C@@H](C)O1)C(N)=O [Example 248, (2R,6R)-4-(8-Cyano-quinoxalin-5-yl)-6-methyl-morpholine-2-carboxylic acid ((R)-1-carbamoyl-propyl)-amide] | < 75 | 75 to 150
CN[C@@H](CO)C(=O)N[C@@H]1C[C@H](C)CN(c2ccc(C(F)(F)F)c3ncccc23)C1 [Example 168, (S)-3-Hydroxy-2-methylamino-N-[(3R,5S)-5-methyl-1-(8-trifluoromethyl-quinolin-5-yl)-piperidin-3-yl]-propionamide] | 75 to 150 | > 150
C[C@@H]1CN(c2ccc(C#N)c3nccnc23)C[C@H](CN2CC(C)(O)C2)O1 [Example 218, 8-[(2S,6R)-2-(3-Hydroxy-3-methyl-azetidin-1-ylmethyl)-6-methyl-morpholin-4-yl]-quinoxaline-5-carbonitrile] | > 150 | < 75
C[C@H]1C[C@@H](NCCN2CCNC2=O)CN(c2ccc(C(F)(F)F)c3ncccc23)C1 [Example 27, 1-{2-[(3R,5S)-5-Methyl-1-(8-trifluoromethyl-quinolin-5-yl)-piperidin-3-ylamino]-ethyl}-imidazolidin-2-one] | < 75 | < 75
